# Assay results taken from patent publication US8912137B2, “Method for increasing natriuresis or diuresis by isoforms of brain natriuretic peptide” (Mayo Foundation for Medical Education and Research, priority 2003, dated 2014).
# Legend:
# [1] = cited from earlier work
# normal dogs = assay: Intrarenal arterial infusion in normal dog; format: in vivo; details: intrarenal arterial infusion 0.03 ng/kg/min
# Method: To determine the physiological effects of BNP-3, the synthesized peptide was delivered via a direct intrarenal arterial infusion (0.03 ng/kg/min) in normal dogs. Physiologic assessment was performed following a 15 minute run-in period. […] Both of these increases normalized during a washout period.
# [2] = tested on: carotid arteries from New Zealand White Rabbits; assay: Vasoactivity in organ chamber, phenylephrine pre-contracted carotid artery rings; details: rabbit carotid rings
# Method: Vasoactivity was assessed in an organ chamber using carotid arteries from New Zealand White Rabbits. Following euthanization, carotids were immediately immersed in cold Krebs solution. Arterial rings ˜4 mm in length (n=6) were dissected, connected to isometric force displacement transducers, and suspended in organ chambers filled with 25 mL of Krebs (94% O2, 6% CO2). Rings were equilibrated for 1 hour at 37° C. and then incrementally stretched to 3 g. Viability and maximum contraction was determined with 60 mM KCl. After 3 washes with Krebs solution and further equilibration, arteries were pre-contracted with phenylephrine in a titrated fashion to achieve ˜80% stable maximal contraction. To study vasoactivity, BNP3 (final cone 10^−10 to 10^−7 M) or vehicle was added to the organ bath in a cumulative manner. Following three further washes and equilibration, the arteries were re-contracted and viability was confirmed by assessment of endothelium independent responses with incremental doses of sodium nitroprusside (10^−9 to 10^−5 M), an exogenous NO donor.
# [3] = tested on: Human umbilical vascular endothelial cells (HUVEC); assay: Stimulation of intracellular cGMP production in HUVEC (BIOTRACK cGMP enzyme immunoassay); format: cell-based; details: 30 minutes incubation, 0.5 mM IBXM
# Method: Human umbilical vascular endothelial cells (HUVEC) were cultured in 96-well plates using endothelial cell medium (EGM™-2) supplemented with the components provided by the EGM™-2 BulletKit (CC-3162) (Clonetics, East Rutherford, N.J.). After cells reached about 80% confluency, the plates were washed with phosphate-buffered saline ([…], SEQ ID NO:35) dissolved in EBM-2 that contained supplements and 0.5 mM IBXM. After incubation, the culture medium was aspirated, and the cells were assayed for intracellular cGMP production using the BIOTRACK cGMP enzyme immunoassay kit (Amersham Pharmacia Biotech). The amount of cGMP was calculated according the standard curve that was generated from parallel reactions within the same experiment.
substance,measurement,setting,value
"recombinant BNP: recombinant brain natriuretic peptide, 32 amino acid peptide with a ring structure (SEQ ID NO:16)",effect on heart rate,[1]; in vivo,no effect
same,pro-arrhythmic effect,[1]; in vivo,not pro-arrhythmic
same,cardiac index,[1]; intravenous therapy,increases
same,pulmonary capillary wedge pressure,[1]; intravenous therapy,significantly decreases
same,systemic vascular resistance,[1]; intravenous therapy,significantly decreases
SPKMVQGSGCFGRKMDRISSSSGLGCKVVQKENQTFPPGFL (listed as Homo sapiens) [BNP3],increased urinary flow,normal dogs,6-8 fold
same,plasma cGMP,normal dogs,elevation of plasma cGMP
same,urinary excretion of sodium,normal dogs,increased urinary excretion of sodium
same,concentration at which vasorelaxation began,[2]; cumulative addition 10^−10 to 10^−7 M,10^−9 M
same,complete relaxation,[2]; dose 10^−7M,~95%
same,complete relaxation,[2]; dose 10^−8M,~60%
same,cGMP,[3]; BNP3 10^−8 M,26 fmol/well
same,cGMP,[3]; BNP3 10^−9 M,18 fmol/well
same,cGMP,[3]; BNP3 10^−10 M,1 fmol/well
